These results are taken from BindingDB's records for doi:10.1016/j.ejmech.2014.11.047 (Dongguk University-Seoul, 2015).

The target of the assay is Hypoxia-inducible factor 1-alpha (Homo sapiens, UniProt Q16665). Kind of assay: Inhibition of HIF-1alpha in human Hep3B cells cotransfected with pGL3-HRE-luciferase plasmid after 24 hrs by dual-luciferase reporter assay.

Each structure is given as a SMILES string.

Sequence of Hypoxia-inducible factor 1-alpha (Q16665 whole entry): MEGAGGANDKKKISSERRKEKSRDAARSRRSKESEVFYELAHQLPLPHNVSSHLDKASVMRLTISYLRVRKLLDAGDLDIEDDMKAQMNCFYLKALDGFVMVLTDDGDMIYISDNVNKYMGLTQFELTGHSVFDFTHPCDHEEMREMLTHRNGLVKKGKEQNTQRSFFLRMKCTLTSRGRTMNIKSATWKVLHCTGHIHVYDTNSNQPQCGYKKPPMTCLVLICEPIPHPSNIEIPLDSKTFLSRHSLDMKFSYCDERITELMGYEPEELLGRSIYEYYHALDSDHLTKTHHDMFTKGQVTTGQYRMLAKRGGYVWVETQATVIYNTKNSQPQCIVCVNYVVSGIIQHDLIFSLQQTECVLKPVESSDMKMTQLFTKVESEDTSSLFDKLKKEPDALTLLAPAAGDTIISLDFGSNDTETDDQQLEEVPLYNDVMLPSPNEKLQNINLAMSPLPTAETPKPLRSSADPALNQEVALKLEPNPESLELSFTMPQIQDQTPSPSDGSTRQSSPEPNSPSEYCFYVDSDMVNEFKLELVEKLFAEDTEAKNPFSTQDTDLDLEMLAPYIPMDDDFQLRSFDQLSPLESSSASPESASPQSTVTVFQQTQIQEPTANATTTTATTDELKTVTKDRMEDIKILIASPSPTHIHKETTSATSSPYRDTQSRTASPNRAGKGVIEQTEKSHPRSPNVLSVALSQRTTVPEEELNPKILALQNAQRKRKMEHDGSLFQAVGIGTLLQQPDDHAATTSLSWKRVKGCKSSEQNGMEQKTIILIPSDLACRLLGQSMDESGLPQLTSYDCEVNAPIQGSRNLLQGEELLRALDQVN

In the case of `CC1(C)Oc2cc3oc(-c4cc(O)cc(O)c4)cc3cc2CC1O` (stereo unspecified) [Moracin P], half-maximal inhibition (IC50) was put at 0.65 nM.
